According to a melting point compilation (Tetko et al.; mined from patent text by program, amines drawn as free bases though some values may be those of a salt):

Compound | melting point [°C]
OCCCc1cc(Cl)cc2nc(Cc3ccccc3Cl)oc12 | 87 to 89
CC(=O)N=c1sc(C)cn1CC(=O)c1cccs1 | 187 to 188
CCOC=C1C=C(C(C)(C)C)C(=O)C(C(C)(C)C)=C1 | 114 to 117
Cc1c(O)ccc(-c2ccc(C#N)cc2)c1C | 174 to 176
N#Cc1cc(N)c(F)c(-c2ccc(Cl)cc2)n1 | 185 to 188
Cc1ccc(C(=S)CCCCCl)cc1 | 87 to 89
CC(=O)Oc1cccc2c1OC(C)(C)C2 | 49 to 50
NS(=O)(=O)c1ccc(-c2cscc2-c2ccc(F)cc2)cc1 | 194 to 195
C=CCNC(=O)c1cnc(SC)nc1NC(C)C | 159 to 161
O=C1c2c(Br)ccc(Br)c2C(=O)N1CC(F)(F)C(F)(F)C(F)(F)F | 165
CCCN(C(=O)n1ccnc1)c1ccccc1Cl | 75.5 to 76.5
Fc1c(F)c(F)c2c(CCNCc3cccc(OCC(F)(F)F)c3)c[nH]c2c1F | 107 to 108
CCCCCCCCCCc1ccc(C(=O)N(O)CCCC(=O)O)cc1 | 98 to 100
CCOc1ccccc1-c1nc2c(C(N)=O)cccc2c(=O)[nH]1 | 252 to 254
CN(C)C(=O)c1nc(-c2ccccc2)nc2c1c1ccc(Cl)cc1n2C | 211 to 213
CC(O)Cc1cccc(S(N)(=O)=O)c1 (stereo unspecified) | 149 to 150
CCOC(=O)c1cn(C(=O)OCC(C)C)c2c(COC(C)=O)cc(C)cc2c1=O | 101 to 103
CC1(C)CC(=NO)c2cc(-c3ccc(Br)cc3)ccc2O1 | 166 to 170

Continued, values first:

melting point [°C] | Compound
120 to 121 | O=C(NCCCC(=O)N1CCCC1)c1cc(Br)no1
108 to 112 | O=C(OCc1ccccc1)C1CCCc2[nH]c3ccccc3c21 (stereo unspecified)
134 to 135 | COc1ccc(N2CCN(c3c(C)c(C)c4c(c3C)C(N3CCCCC3)C(C)(C)O4)CC2)cc1OC (stereo unspecified)
221 | CC(SC1COC(c2ccc(C(=O)Nc3ccc(Br)cc3)cc2)OC1)C(O)(Cn1cncn1)c1ccc(F)cc1F (stereo unspecified)
> 300 | O=c1[nH]c2cc(Cl)ccc2c(O)c1Sc1ccc(O)cc1
80 to 81 | Cc1cc(NCc2ccccc2)c2c(c1)C(c1ccc(C(C)C)cc1)C(C)(C)O2 (stereo unspecified)
131 | O=C(O)CCc1nn(-c2ccc(F)cc2)cc1-c1ccc(Cl)cc1
65 to 70 | O=C(NCCCN1C(=O)C2(COc3cc4c(cc32)CCO4)c2ccccc21)c1ccccc1OC(F)(F)F (stereo unspecified)
204 to 206 | COc1ccc(-c2cc(C(=O)O)sc2-c2ccc(F)cc2)cc1
137 to 141 | CC(C)NCC(O)COc1cccc(C2=NNC(=O)CC2)c1 (stereo unspecified)
151 | COc1ccc(C2=C(C#N)c3ccc(OC)cc3CC2)cc1
193 to 196 | COc1cccc2c(=O)cc(C3CC3C(=O)O)oc12 (stereo unspecified)
171 | CC(O)Cn1cnc2cnc3ccccc3c21 (stereo unspecified)
114 to 116 | CC#CCOc1ccc(OCC(=O)O)cc1
80 to 83 | CN(C)c1ccc(NC(=O)N(CCC2=CCCCC2)C[C@H]2CCC[C@H](CN(CCC3=CCCCC3)C(=O)Nc3ccc(N(C)C)cc3)C2)cc1 (relative stereo)
191 to 193 | O=C(O)c1cccc(-n2c(-c3ccccc3)cc3c2CCCC3)c1
72 | O=C(O)CC(c1ccccc1)C(F)(F)F (stereo unspecified)
202 | O=c1ccc(Oc2ccc(Cl)cc2)n[nH]1
195 to 198 | CCOc1cc2c(cc1OC)C(c1ccc(C(=O)N(C(C)C)C(C)C)cc1)=NC1CC[N+](C)([O-])CC21 (stereo unspecified)
212 to 214 | O=C(Cn1nc(-c2ccccc2O)nc1-c1ccccc1O)NC(CO)CO
139 to 140 | CCCc1c(C(=O)NCc2ccc3cc(OCC(=O)OC)ccc3c2)cnn1-c1ccc(Cl)cc1
186 to 188 | COc1ccc2c3c(c(=O)oc2c1)CN(Cc1ccnc2ccccc12)CC3
115 to 116 | O=Cc1cn(Cc2ccc(OCc3csc(-c4ccccc4)n3)cc2)nc1-c1cccs1
